Measurements taken from patent US11434205B2, “Substituted imidazole carboxylate derivatives and the use thereof” (priority 2018, dated 2022).
Like-named read-outs stand apart in the source and are kept apart here.

What was measured:
rats [1] = assay: Loss of righting reflexes (LORR) assay in rats, ED50 by up and down method; type: in vivo, rat; conditions: tail vein, class symbols; for ED50: Rattus norvegicus
Procedure, shortened: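 Adult male Sprague-Dawley rats (250-300 g) dosed i.v. via tail vein at 0.1 mL/s. Anesthesia scored as loss of righting reflex lasting >30 s; ED50 derived by up-and-down method.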

rats [2] = test system: rats
Description: Adult male Sprague-Dawley rats (250-300 g) were selected for the experiment. […] The anesthesia effects of the compounds were assessed in rats using a LORR assay and a period >30 s was considered as an indicator of general anesthesia. Then the up and down method was used to determine 50% effective dose (ED50). The drugs were administered through the tail vein of rats in a volume of 0.6 mL and at a rate of 0.1 mL/s.

rats [3] = assay: Pharmacological characteristics at equivalent doses (2×ED50) in rats; conditions: 2×ED50, tail vein; for Adverse reactions: Red urine (incidence): DMSO solution (DMSO alone 10/10); for Adverse reactions: Tremor (incidence): animals affected/animals; for Onset time: time of LORR
Procedure, shortened: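 Adult male Sprague-Dawley rats (250-300 g, n=8) received each drug at twice its ED50 via tail vein (0.6 mL at 0.1 mL/s). Onset of anesthesia taken as time to LORR.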

rats [4] = type: in vivo, rat; conditions: rats of the MAP/HR figures, 2×ED50, tail vein; same value in min
Procedure, shortened: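 Rats implanted with telemetry (left ventricular and abdominal aortic catheters, ECG leads) at least one week before recording; compounds given via lateral tail-vein catheter. MAP and HR sampled every 15 s for 30 min before and after dosing to judge hemodynamic stability.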

rats [5] = conditions: continuous tail vein infusion at 2×MIR, LORR maintained 1 hour
Description: Pharmacological Effects of the Compounds on Continuous Infusion in Rats
Adult male Sprague-Dawley rats with body weight ranging from 250 to 300 gm were selected for continuous infusion test. […] Time to recovery of righting reflex from stopping infusion, and time to fully awake from stopping infusion were recorded.

rats [6] = type: in vivo, rat; conditions: rats of the MAP/HR figures, 2×ED50, tail vein
[7] = test system: secretion of corticosterone, H295R cell line; assay: cells; type: cell-based; conditions: for EC50: Homo sapiens, NCI-H295R, read-out: EC50 (Corticosterone)
Description: (§1) The Effects of the Compounds on Adrenocortical Function In Vitro Test
(§2) Then secretion of the cortisol and corticosterone in the supernatant, was measured using HPLC-MS/MS method to determine whether the compounds of the present invention had adrenotoxic potential.

[8] = test system: secretion of cortisol, H295R cell line; assay: cells; type: cell-based; conditions: for EC50: Homo sapiens, NCI-H295R, read-out: EC50 (Cortisol)
Description: as §1, §2

[9] = H295R cell line, 0.1-10000 nM, HPLC-MS/MS, Table D3

C=C=CC1(SC(=O)c2c(F)ncn2[C@H](C)c2ccccc2)CSC1 [Compound E90]
ED50 (rats [1]): 0.01 to 0.1 mg/kg | Approximate therapeutic index (rats [2]): >30 | Minimal lethal dose (rats [2]): >1.5 mg/kg | Righting reflex duration (rats [3]): 1.29 ± 0.64 min | Adverse reactions: Red urine (incidence) (rats [3]): urine (8/8) | Adverse reactions: Tremor (incidence) (rats [3]): (1/8), Red | Onset time (rats [3]): 0.50 ± 0.20 min | recovery time of the test animals' righting reflex (rats [4]): 1.42 min | Onset time (rats [5]; Table E4): 2 to 3 min | Recovery time after stopping infusion (rats [5]; Table E4): 9 to 12 min | Types and incidence of adverse reactions (rats [5]; Table E4): Tremor (2/6) | recovery time of the test animals' righting reflex (rats [6]): 85 s

CCOC(=O)c1c(Cl)nc(Cl)n1[C@H](C)c1ccccc1 [Compound E129]
ED50 (rats [1]): 0.1 to 0.5 mg/kg | Approximate therapeutic index (rats [2]): >30 | Minimal lethal dose (rats [2]): >9 mg/kg | Righting reflex duration (rats [3]): 0.68 ± 0.34 min | Adverse reactions: Red urine (incidence) (rats [3]): urine (8/8) | Adverse reactions: Tremor (incidence) (rats [3]): (3/8), Red | Onset time (rats [3]): 0.87 ± 0.26 min | recovery time of the test animals' righting reflex (rats [4]): 0.87 min | Onset time (rats [5]; Table E4): 3 to 4 min | Recovery time after stopping infusion (rats [5]; Table E4): 8 to 13 min | Types and incidence of adverse reactions (rats [5]; Table E4): No | recovery time of the test animals' righting reflex (rats [6]): 52 s

CC#CC(C)OC(=O)c1c(Cl)ncn1[C@H](C)c1ccccc1 (some centres unmarked) [Compound E116]
ED50 (rats [1]): 0.5 to 1 mg/kg | Approximate therapeutic index (rats [2]): >16 | Minimal lethal dose (rats [2]): >10 mg/kg | Righting reflex duration (rats [3]): 1.18 ± 0.56 min | Adverse reactions: Red urine (incidence) (rats [3]): (8/8) | Onset time (rats [3]): 0.61 ± 0.23 min | recovery time of the test animals' righting reflex (rats [4]): 1.53 min | Onset time (rats [5]; Table E4): 3 to 4 min | Recovery time after stopping infusion (rats [5]; Table E4): 11 to 15 min | Types and incidence of adverse reactions (rats [5]; Table E4): Tremor (1/6), Tongue stretching (3/6) | recovery time of the test animals' righting reflex (rats [6]): 92 s

CCOC(=O)c1c(Cl)ncn1[C@H](C)c1ccccc1 [Compound E100]
ED50 (mg/kg) (rats [1]): B (B means that the measured ED50 is in the range of 0.10-0.50 mg/kg (excluding 0.10 mg/kg, including 0.50 mg/kg).) | Approximate therapeutic index (rats [2]): >30 | Minimal lethal dose (rats [2]): >12 mg/kg | Righting reflex duration (rats [3]): 1.98 ± 1.85 min | Sedation duration (mg/kg) (rats [3]): 5.82 ± 2.11 | Adverse reactions: Red urine (incidence) (rats [3]): urine (8/8) | Adverse reactions: Tremor (incidence) (rats [3]): (5/8), Red | Onset time (rats [3]): 0.60 ± 0.24 min | recovery time of the test animals' righting reflex (rats [4]): 1.83 min | Onset time (rats [5]; Table E4): 2 to 3 min | Recovery time after stopping infusion (rats [5]; Table E4): 9 to 14 min | Types and incidence of adverse reactions (rats [5]; Table E4): Tremor (3/6) | recovery time of the test animals' righting reflex (rats [6]): 110 s

C=CC(C)(C)OC(=O)c1c(F)ncn1[C@H](C)c1ccccc1 [Compound E32]
ED50 (mg/kg) (rats [1]): B (B means that the measured ED50 is in the range of 0.10-0.50 mg/kg (excluding 0.10 mg/kg, including 0.50 mg/kg).) | Approximate therapeutic index (rats [2]): >30 | Minimal lethal dose (rats [2]): >4 mg/kg | Righting reflex duration (rats [3]): 3.86 ± 1.13 min | Sedation duration (mg/kg) (rats [3]): 8.70 ± 2.07 | Adverse reactions: Red urine (incidence) (rats [3]): urine (8/8) | Adverse reactions: Tremor (incidence) (rats [3]): (3/8), Red | Onset time (rats [3]): 0.30 ± 0.14 min | recovery time of the test animals' righting reflex (rats [4]): 3.65 min | Onset time (rats [5]; Table E4): 2 to 3 min | Recovery time after stopping infusion (rats [5]; Table E4): 12 to 16 min | Types and incidence of adverse reactions (rats [5]; Table E4): Tremor (2/6), Tongue stretching (3/6) | recovery time of the test animals' righting reflex (rats [6]): 219 s

C#CC1(OC(=O)c2cncn2[C@H](C)c2ccccc2)CCC1 [Compound D1]
ED50 (rats [1]): 0.1 to 0.5 mg/kg | Approximate therapeutic index (rats [2]): >14 | Minimal lethal dose (rats [2]): >6 mg/kg | Righting reflex duration (rats [3]): 4.28 ± 1.78 min | Adverse reactions: Red urine (incidence) (rats [3]): Red urine (8/8) | Onset time (rats [3]): 0.26 ± 0.10 min | recovery time of the test animals' righting reflex (rats [4]): 13.08 min | Onset time (rats [5]; Table D4): 3 to 4 min | Recovery time after stopping infusion (rats [5]; Table D4): 11 to 14 min | Types and incidence of adverse reactions (rats [5]; Table D4): Tremor (2/6) | recovery time of the test animals' righting reflex (rats [6]): 785 s

C[C@H](c1ccccc1)n1c(Cl)nc(Cl)c1C(=O)OC1CSC1 [Compound E133]
ED50 (rats [1]): 0.5 to 1 mg/kg | Approximate therapeutic index (rats [2]): >12 | Minimal lethal dose (rats [2]): >10 mg/kg | Righting reflex duration (rats [3]): 2.10 ± 0.86 min | Adverse reactions: Red urine (incidence) (rats [3]): urine (8/8) | Adverse reactions: Tremor (incidence) (rats [3]): (4/8), Red | Onset time (rats [3]): 0.25 ± 0.10 min | recovery time of the test animals' righting reflex (rats [4]): 2.30 min | Onset time (rats [5]; Table E4): 3 to 4 min | Recovery time after stopping infusion (rats [5]; Table E4): 9 to 12 min | Types and incidence of adverse reactions (rats [5]; Table E4): Tremor (4/6) | recovery time of the test animals' righting reflex (rats [6]): 138 s

CC#CC1(OC(=O)c2cncn2[C@H](C)c2ccccc2)COC1 [Compound D39]
ED50 (rats [1]): 0.5 to 1 mg/kg | Approximate therapeutic index (rats [2]): >15 | Minimal lethal dose (rats [2]): >9 mg/kg | Adverse reactions: Hindlimb rigidity (incidence) (rats [3]): Hindlimb rigidity (1/8), | Adverse reactions: Myoclonus (incidence) (rats [3]): Myoclonus (1/8), Red | Righting reflex duration (rats [3]): 1.11 ± 0.34 min | Adverse reactions: Red urine (incidence) (rats [3]): urine (8/8) | Onset time (rats [3]): 0.20 ± 0.05 min | Corticosterone as an indicator to determine the presence of inhibition [7, 9]: 0 | EC50 [7]: > 1000 nM | Cortisol as an indicator to determine the presence of inhibition [8, 9]: 0 | EC50 [8]: > 1000 nM | recovery time of the test animals' righting reflex (rats [4]): 6.25 min | recovery time of the test animals' righting reflex (rats [6]): 375 s

C#CC1(COC(=O)c2cncn2[C@H](C)c2ccccc2)CCC1 [Compound D10]
ED50 (rats [1]): 0.5 to 1 mg/kg | Approximate therapeutic index (rats [2]): >12 | Minimal lethal dose (rats [2]): >6 mg/kg | Righting reflex duration (rats [3]): 6.04 ± 2.27 min | Adverse reactions: Red urine (incidence) (rats [3]): (8/8) | Adverse reactions: Tremor (incidence) (rats [3]): Tremor (2/8), Red urine | Onset time (rats [3]): 0.14 ± 0.03 min | recovery time of the test animals' righting reflex (rats [4]): 10.08 min | Onset time (rats [5]; Table D4): 3 to 4 min | Recovery time after stopping infusion (rats [5]; Table D4): 13 to 17 min | Types and incidence of adverse reactions (rats [5]; Table D4): Tremor (6/6) | recovery time of the test animals' righting reflex (rats [6]): 605 s

C=C=CC(C)OC(=O)c1cncn1[C@H](C)c1ccccc1 (some centres unmarked) [Compound D22]
ED50 (rats [1]): 0.1 to 0.5 mg/kg | Approximate therapeutic index (rats [2]): >11 | Minimal lethal dose (rats [2]): >2 mg/kg | Adverse reactions: Euphoria (incidence) (rats [3]): Euphoria (1/8), Red | Righting reflex duration (rats [3]): 4.51 ± 1.63 min | Adverse reactions: Red urine (incidence) (rats [3]): urine (8/8) | Onset time (rats [3]): 0.24 ± 0.07 min | recovery time of the test animals' righting reflex (rats [4]): 0.83 min | Onset time (rats [5]; Table D4): 3 to 4 min | Recovery time after stopping infusion (rats [5]; Table D4): 14 to 18 min | Types and incidence of adverse reactions (rats [5]; Table D4): Euphoria (2/6), Tremor (4/6) | recovery time of the test animals' righting reflex (rats [6]): 50 s

CC(OC(=O)c1cncn1[C@H](C)c1ccccc1)C1CO1 (some centres unmarked) [Compound B20]
ED50 (rats [1]): 0.5 to 1 mg/kg | Approximate therapeutic index (rats [2]): >10 | Minimal lethal dose (rats [2]): >17 mg/kg | Righting reflex duration (rats [3]): 2.59 ± 0.99 min | Adverse reactions: Red urine (incidence) (rats [3]): Red urine (8/8) | Onset time (rats [3]): 0.28 ± 0.14 min | Corticosterone as an indicator to determine the presence of inhibition ([7]; H295R, Table B3): 0 | EC50 [7]: > 1000 nM | Cortisol as an indicator to determine the presence of inhibition ([8]; H295R, Table B3): 0 | EC50 [8]: > 1000 nM | recovery time of the test animals' righting reflex (rats [4]): 2.68 min | recovery time of the test animals' righting reflex (rats [6]): 161 s
